Laboratory results published in patent US8609638B2, “Enzyme inhibiting compounds and methods” (priority 2009, dated 2013).
Like-named read-outs stand apart in the source and are kept apart here.

Molecular target: T1, IspH (LytB), E-4-hydroxy-3-methyl-but-2-enyl diphosphate reductase (Aquifex aeolicus, UniProt O67625)
T1 construct: inferred from Ni-NTA purification with imidazole elution; made in house; host or cells: E. coli BL-21(DE3)
Experiment: biochemical
Parameters: species or system A. aeolicus
Procedure: A. aeolicus IspH Protein Purification. BL-21(DE3) cells expressing IspH from A. aeolicus were grown in LB media supplemented with […] ampicillin at 37° C. until the OD600 reached 0.6. Cells were then induced with 200 μg/L anhydrotetracycline and then grown at 20° C. for 15 hours. Cells were harvested by centrifugation (9000 rpm, 8 min, 4° C.) and kept at −80° C. until use. Cell pellets were resuspended and lysed in B-PER (Thermo Scientific, Rockford, Ill.) protein extraction reagent for 1 hour at 4° C. and then centrifuged at […] at 4° C. for 15 minutes. The supernatant was applied to a Ni-NTA column equilibrated with 5 mM imidazole in pH 8.0 buffer containing 50 mM Tris HCl and 150 mM NaCl. After washing with 20 mM imidazole, protein was eluted with 100 mM imidazole. Fractions were collected and dialyzed in pH 8.0 buffer containing 50 mM Tris HCl, 150 mM NaCl, 5% glycerol, and 1 mM DTT, four times. The purified protein was flash-frozen in liquid nitrogen and stored at −80° C. until use.
E. coli IspH Protein Purification. BL21 DE3 (Invitrogen) cells harboring an E. coli IspH construct were grown in LB media at 37° C. until the OD600 reached 0.6. Induction was performed with 200 ng/mL anhydrotetracycline at 20° C. for 15 hours. Cells were harvested by centrifugation at 9000 rpm for 8 min and stored at −80° C. Cell pellets were resuspended and lysed in B-PER protein extraction reagent for about 1 hour at 4° C., and then the lysate was centrifuged at […] for 30 minutes. The supernatant was collected and loaded onto an IBA Strep-tag column equilibrated with buffer W (100 mM Tris.HCl, 150 mM NaCl, pH 8.0). After washing with buffer W, protein was eluted using buffer E (buffer W containing 2.5 mM desthiobiotin). Fractions were collected and dialyzed in pH 8.0 buffer containing 50 mM Tris.HCl, 150 mM NaCl, 5% glycerol, and 1 mM DTT, twice. The purified protein was flashfrozen in liquid nitrogen and stored at −80° C. until use.
Protein Reconstitution. […] Before reconstitution, protein was transferred into a Coy vinyl anaerobic chamber after being degassed on a Schlenk line. The following steps were performed inside the anaerobic chamber with an oxygen level <2 ppm. In a typical reconstitution experiment, 10 mM DTT and ˜0.5 mg of elemental sulfur were added to 3 mL of 0.6 mM protein solution in a pH 8.0 buffer containing 50 mM Tris HCl, 150 mM NaCl, and 5% glycerol. After 1.5 hours under stirring, FeCl3 was slowly added from a 30 mM stock solution to 6 equiv. After 3 hours, an aliquot of the solution was centrifuged and a UV-vis spectrum recorded. If the A410 nm/A280 nm ratio was ≧0.38, the protein was then desalted by passing through a PD10 column. If the ratio was <0.38, more DTT, elemental sulfur, and FeCl3 were added, and the sample was incubated with stirring (for typically ˜2 h) until the 410 nm/280 nm absorption ratio was ˜0.38. The reconstituted protein was then concentrated by ultrafiltration, and the protein concentration was determined by using a Bio-Rad (Hercules, Calif.) protein assay kit.
IspH inhibition assays. Assays were performed anaerobically at room temperature according to the methods of Altincicek et. al. (FEBS Lett. (2002) 532: 437-440) with the following modifications. […]
For enzyme assays, various amounts of the test inhibitor ([…]) were added and the reactions were monitored at 732 nm. […]

T1 sequence (O67625 whole entry): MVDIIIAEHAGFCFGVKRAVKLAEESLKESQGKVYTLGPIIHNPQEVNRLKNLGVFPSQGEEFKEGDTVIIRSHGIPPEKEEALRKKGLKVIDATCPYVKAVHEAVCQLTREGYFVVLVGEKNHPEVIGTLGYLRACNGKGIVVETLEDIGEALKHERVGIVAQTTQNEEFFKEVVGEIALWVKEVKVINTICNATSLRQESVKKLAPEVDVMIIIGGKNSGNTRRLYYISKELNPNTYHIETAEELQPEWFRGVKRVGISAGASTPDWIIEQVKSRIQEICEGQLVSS

O=C(O)CCCCOP(=O)(O)OP(=O)(O)O [BPH-988, 5-Pentanoic acid diphosphate]
Ki (Ki): 51 µM

C#CCCOP(=O)(O)OP(=O)(O)O [BPH-1077, But-3-ynyl diphosphate]
Ki (IspH inhibition, Ki deduced from IC50 by Cheng-Prusoff equation, read-out: Ki): ~0.2 µM

C#CCOP(=O)(O)OP(=O)(O)O [BPH-1061, Prop-2-ynyl diphosphate]
IC50 (IspH inhibition, inhibitor incubated 10 minutes before 34 μM HMBPP): 6.8 µM

C#CCO [Propargyl alcohol, reference compound]
Ki (IspH inhibition, read-out: Ki): > 10000 µM

C#CC[PH](=O)CP(=O)(O)O (centres unmarked) [BPH-1084, [[(Prop-2-ynyl)phosphinyl]methyl]phosphonic acid]
activity in IspH inhibition (in words) (relative to parent or comparator compounds): decreased activity
